Where a name gives a salt, the structure may show the parent alone.
Key:
Assay type in all cases: biochemical
Human LOXL2 = Human LOXL2 (Homo sapiens (Human), UniProt Q9Y4K0); experiment: LOXL2 inhibition, peroxidase-coupled Amplex Red amine oxidase assay; conditions: 30 min preincubation at 37° C., putrescine substrate
Source text: (§1) Method to Determine the Ability of Compounds of the Invention to Inhibit LOX and LOXL1-4 from Different Sources
(§2) Lysyl oxidase (LOX) is an extracellular copper dependent enzyme which oxidizes peptidyl lysine and hydroxylysine residues in collagen and lysine residues in elastin to produce peptidyl alpha-aminoadipic-delta-semialdehydes. […] There are five LOX family members; these are LOX, LOXL1, LOXL2, LOXL3 and LOXL4. LOX and LOXL family members can be acquired as recombinant active proteins from commercial sources, or extracted from animal tissues like bovine aorta, tendons, pig skin; or prepared from cell cultures. The inhibitory effects of the compounds of the present invention were tested against the given LOX-LOXL preparation using a high-throughput coupled colorimetric method (Holt A. and Palcic M., A peroxidase-coupled continuous absorbance plate-reader assay for flavin monoamine oxidases, copper-containing amine oxidases and related enzymes. Nat. Protoc. 2006; 1: 2498-2505). The assay was developed using either 384 or 96 well format. Briefly, in a standard 384 well plate assay 25 μL of a dilution of any of the isoenzymes and orthologues in 1.2 M urea, 50 mM sodium borate buffer (pH 8.2) were added into each well in the presence of 1 μM mofegiline and 0.5 mM pargyline (to inhibit SSAO and MAO-B and MAO-A, respectively). Test compounds were dissolved in DMSO and tested in a Concentration Response Curve (CRC) with 11 data points, typically in the micromolar or nanomolar range after incubation with the enzyme for 30 min at 37° C. Twenty five μL of a reaction mixture containing twice the KM concentration of putrescine (Sigma Aldrich, e.g. 20 mM for LOX, or 10 mM for LOXL2 and LOXL3), 120 μM Amplex Red (Sigma Aldrich) and 1.5 U/mL horseradish peroxidase (Sigma Aldrich) prepared in 1.2 M urea, 50 mM sodium borate buffer (pH 8.2) were then added to the corresponding wells. The above volumes were doubled in the case of 96 wells plate. The fluorescence (RFU) was read every 2.5 min for 30 min at a range of temperatures from 37° to 45° C., excitation 565 nm and emission 590 (Optima; BMG labtech). The slope of the kinetics for each well was calculated using MARS data analysis software (BMG labtech) and this value was used to deduce the IC50 value (Dotmatics).

Recombinant human MAO-B = Recombinant human MAO-B (Homo sapiens (Human), UniProt P27338); experiment: Human recombinant MAO-B inhibition; conditions: benzylamine 100 μM
Method: Method to Determine the Ability of Compounds of Formula I to Inhibit Human Recombinant MAO-B
The specificity of the compounds of this invention was tested by determining their ability to inhibit MAO-B activities in vitro. Recombinant human MAO-B (0.06 mg/mL; Sigma Aldrich) was used as source of MAO-B enzyme activities. The assay was performed in a similar way as for human SSAO/VAP-1 (Example 36) except, the substrate benzylamine was used at 100 μM.

[1] = target: Human recombinant SSAO/VAP-1 (Homo sapiens (Human), UniProt Q16853); experiment: Human recombinant SSAO/VAP-1 amine oxidase inhibition; conditions: 30 min preincubation at 37° C., 600 μM benzylamine
Method: Method to Determine the Ability of Compounds of Formula I to Inhibit Human Recombinant SSAO/VAP-1
Human recombinant SSAO/VAP-1 amine oxidase activity was determined using the coupled colorimetric method as described for monoamine oxidase, copper-containing amine oxidases and related enzymes (Holt A. and Palcic M., A peroxidase-coupled continuous absorbance plate-reader assay for flavin monoamine oxidases, copper-containing amine oxidases and related enzymes. Nat Protoc 2006; 1: 2498-2505). Briefly, a cloned cDNA template corresponding to residues 34-763 of human SSAO/VAP-1, and incorporating a mouse Ig kappa (κ) signal sequence, N-terminal flag epitope tag and tobacco etch virus (TEV) cleavage site, was assembled in a mammalian expression vector (pLO-CMV) by Geneart AG. This vector containing human SSAO/VAP-1 residues was transfected into CHO-K1 glycosylation mutant cell line, Lec 8. A clone stably expressing human SSAO/VAP-1 was isolated and cultured in large scale. Active human SSAO/VAP-1 was purified and recovered using immunoaffinity chromatography. This was used as the source for SSAO/VAP-1 activity. A high-throughput colorimetric assay was developed using either 96 or 384 well format. Briefly, in a standard 96 well plate assay 50 μL of purified human SSAO/VAP-1 (0.25 μg/mL) in 0.1 M sodium phosphate buffer (pH 7.4) was added into each well. Test compounds were dissolved in DMSO and tested in a Concentration Response Curve (CRC) with 4-11 data points, typically in the micromolar or nanomolar range after incubation with human SSAO/VAP-1 for 30 min at 37° C. After 30 min incubation, 50 μL of the reaction mixture containing 600 μM benzylamine (Sigma Aldrich), 120 μM Amplex Red (Sigma Aldrich) and 1.5 U/mL horseradish peroxidase (Sigma Aldrich) prepared in 0.1 M sodium phosphate buffer (pH 7.4) were added to the corresponding well. The fluorescence unit (RFU) was read every 2.5 min for 30 min at 37° C. excitation 565 nm and emission 590 (Optima; BMG labtech). The slope of the kinetics for each well was calculated using MARS data analysis software (BMG labtech) and this value was used to deduce the IC50 value (Dotmatics).

Bovine LOX = Bovine LOX (Bos taurus (Bovine), UniProt P33072); experiment: LOX inhibition, peroxidase-coupled Amplex Red amine oxidase assay; conditions: 30 min preincubation at 37° C., putrescine substrate
Source text: as §1
as §2, with “Test compounds were dissolved in DMSO and tested in a Concentration Response Curve (CRC) with 11 data points, typically in the micromolar or nanomolar range after incubation with the enzyme for 30 min at 37° C.” left out

Chain of Bovine LOX (P33072 170-418): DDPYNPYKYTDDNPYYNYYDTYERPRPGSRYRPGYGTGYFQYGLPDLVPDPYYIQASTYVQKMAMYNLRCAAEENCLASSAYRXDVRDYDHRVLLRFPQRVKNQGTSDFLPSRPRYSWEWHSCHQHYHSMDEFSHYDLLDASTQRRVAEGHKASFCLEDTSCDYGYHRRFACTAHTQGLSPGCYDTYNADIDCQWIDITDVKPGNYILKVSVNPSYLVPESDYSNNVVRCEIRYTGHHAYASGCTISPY
Chain of Human LOXL2 (Q9Y4K0 26-774): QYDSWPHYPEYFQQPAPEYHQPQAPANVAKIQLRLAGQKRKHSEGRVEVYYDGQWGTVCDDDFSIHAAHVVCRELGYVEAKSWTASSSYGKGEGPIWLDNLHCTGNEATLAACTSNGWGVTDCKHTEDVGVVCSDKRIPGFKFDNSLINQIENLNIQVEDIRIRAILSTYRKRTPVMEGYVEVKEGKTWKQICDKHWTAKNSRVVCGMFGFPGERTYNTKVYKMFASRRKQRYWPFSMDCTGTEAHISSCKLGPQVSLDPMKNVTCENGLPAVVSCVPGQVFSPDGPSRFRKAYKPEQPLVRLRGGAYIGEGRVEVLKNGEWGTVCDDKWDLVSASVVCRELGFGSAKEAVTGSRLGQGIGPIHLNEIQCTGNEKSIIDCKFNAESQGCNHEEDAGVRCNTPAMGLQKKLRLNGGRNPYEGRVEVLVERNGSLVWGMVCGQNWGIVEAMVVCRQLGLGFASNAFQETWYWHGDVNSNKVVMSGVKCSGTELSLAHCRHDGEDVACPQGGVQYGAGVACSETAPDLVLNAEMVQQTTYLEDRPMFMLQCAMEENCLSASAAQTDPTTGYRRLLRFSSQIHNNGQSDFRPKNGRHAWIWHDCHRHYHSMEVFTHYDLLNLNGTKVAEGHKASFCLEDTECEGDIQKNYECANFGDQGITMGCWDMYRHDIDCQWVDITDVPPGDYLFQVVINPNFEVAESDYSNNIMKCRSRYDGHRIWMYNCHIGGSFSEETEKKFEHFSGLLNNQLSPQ
Chain of Human recombinant SSAO/VAP-1 (Q16853 34-763): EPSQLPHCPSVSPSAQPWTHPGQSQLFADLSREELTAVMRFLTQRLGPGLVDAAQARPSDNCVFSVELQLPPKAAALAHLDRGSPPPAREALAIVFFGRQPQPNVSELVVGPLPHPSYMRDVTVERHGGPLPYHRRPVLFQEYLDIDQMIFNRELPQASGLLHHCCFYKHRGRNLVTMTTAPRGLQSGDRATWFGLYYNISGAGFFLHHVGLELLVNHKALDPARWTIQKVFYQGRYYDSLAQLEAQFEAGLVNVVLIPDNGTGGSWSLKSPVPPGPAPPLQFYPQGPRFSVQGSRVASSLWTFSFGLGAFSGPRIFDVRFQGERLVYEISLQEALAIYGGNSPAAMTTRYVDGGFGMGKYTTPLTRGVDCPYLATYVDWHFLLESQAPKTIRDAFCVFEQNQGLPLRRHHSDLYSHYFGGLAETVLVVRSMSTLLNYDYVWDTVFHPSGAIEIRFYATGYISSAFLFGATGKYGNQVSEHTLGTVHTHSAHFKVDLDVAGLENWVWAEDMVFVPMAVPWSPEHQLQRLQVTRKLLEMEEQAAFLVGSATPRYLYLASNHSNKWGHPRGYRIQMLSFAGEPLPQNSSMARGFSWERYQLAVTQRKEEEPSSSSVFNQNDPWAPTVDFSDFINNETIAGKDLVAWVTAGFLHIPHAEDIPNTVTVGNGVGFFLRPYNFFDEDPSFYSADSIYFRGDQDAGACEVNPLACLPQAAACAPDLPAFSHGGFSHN
Chain of Recombinant human MAO-B (P27338 whole entry): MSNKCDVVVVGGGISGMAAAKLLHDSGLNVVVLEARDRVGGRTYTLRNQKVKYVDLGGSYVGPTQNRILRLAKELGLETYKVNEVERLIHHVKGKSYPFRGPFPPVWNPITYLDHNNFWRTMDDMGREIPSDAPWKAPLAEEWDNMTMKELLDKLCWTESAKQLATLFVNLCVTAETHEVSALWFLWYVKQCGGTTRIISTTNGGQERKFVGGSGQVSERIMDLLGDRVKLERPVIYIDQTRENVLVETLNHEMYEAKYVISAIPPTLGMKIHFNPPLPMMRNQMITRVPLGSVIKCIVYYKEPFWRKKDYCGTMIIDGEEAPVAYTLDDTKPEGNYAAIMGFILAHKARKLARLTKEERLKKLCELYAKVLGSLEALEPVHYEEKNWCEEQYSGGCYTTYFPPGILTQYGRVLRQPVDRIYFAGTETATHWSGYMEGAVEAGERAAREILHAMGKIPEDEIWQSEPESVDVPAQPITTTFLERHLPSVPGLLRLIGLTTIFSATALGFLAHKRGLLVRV

| Compound | IC50 (Human LOXL2) [nM] | IC50 (Recombinant human MAO-B) [nM] | IC50 [1] [nM] | IC50 (Bovine LOX) [nM] |
| --- | --- | --- | --- | --- |
| CN(C)S(=O)(=O)c1ccc(Cc2c(C(C)(C)O)n(C/C(F)=C/CN)c3cccnc23)cc1 [Compound 25, (Z)-4-((1-(4-amino-2-fluorobut-2-en-1-yl)-2-(2-hydroxypropan-2-yl)-1H-pyrrolo[3,2-b]pyridin-3-yl)methyl)-N,N-dimethylbenzenesulfonamide dihydrochloride] | < 300 | > 3000 | > 3000 | > 300 |
| Cc1c(Cc2cccc(S(=O)(=O)N(C)C)c2)c2ncccc2n1C/C(F)=C/CN [Compound 18, dihydrochloride] | < 300 | > 3000 | > 3000 | > 300 |
| Cc1c(Cc2ccc(S(C)(=O)=O)nc2)c2nc(C(F)(F)F)ccc2n1C/C(F)=C/CN [Compound 31, (Z)-3-fluoro-4-(2-methyl-3-((6-(methylsulfonyl)pyridin-3-yl)methyl)-5-(trifluoromethyl)-1H-pyrrolo[3,2-b]pyridin-1-yl)but-2-en-1-amine trihydrochloride] | < 300 | > 3000 | > 3000 | > 300 |
| Cc1c(Oc2ccc(S(=O)(=O)N(C)C)cc2)c2ccccc2n1C/C(F)=C/CN [Compound 21, (Z)-4-((1-(4-amino-2-fluorobut-2-en-1-yl)-2-methyl-1H-indol-3-yl)oxy)-N,N-dimethylbenzene-sulfonamide hydrochloride] | < 300 | > 3000 | > 3000 | > 300 |
| CCS(=O)(=O)c1ccc(Cc2c(C(C)C)n(C/C(F)=C/CN)c3cccnc23)cn1 [Compound 43, (Z)-4-(3-((6-(ethylsulfonyl)pyridin-3-yl)methyl)-2-isopropyl-1H-pyrrolo[3,2-b]pyridin-1-yl)-3-fluorobut-2-en-1-amine dihydrochloride] | < 300 |  |  | > 300 |
| Cc1ncc2c(n1)c(Cc1ccc(S(=O)(=O)N(C)C)cc1)c(C)n2C/C(F)=C/CN [Compound 39, (Z)-4-((5-(4-amino-2-fluorobut-2-en-1-yl)-2,6-dimethyl-5H-pyrrolo[3,2-d]pyrimidin-7-yl)methyl)-N,N-dimethylbenzenesulfonamide dihydrochloride] | < 300 | > 3000 | > 3000 | > 300 |
| Cc1c(Cc2ccc(S(=O)(=O)N(C)C)cc2)c2nc(F)ccc2n1C/C(F)=C/CN [Compound 23, (Z)-4-((1-(4-amino-2-fluorobut-2-en-1-yl)-5-fluoro-2-methyl-1H-pyrrolo[3,2-b]pyridin-3-yl)methyl)-N,N-dimethylbenzenesulfonamide dihydrochloride] | < 300 | > 3000 | > 3000 | > 300 |
| Cc1c(Cc2ccc(S(=O)(=O)N(C)C)cc2)c2cnccc2n1C/C(F)=C/CN [Compound 32, (Z)-4-((1-(4-amino-2-fluorobut-2-en-1-yl)-2-methyl-1H-pyrrolo[3,2-c]pyridin-3-yl)methyl)-N,N-dimethylbenzenesulfonamide dihydrochloride] | < 300 | > 3000 | > 3000 | > 300 |
| Cc1ccc2c(n1)c(Cc1ccc(S(C)(=O)=O)cn1)c(C)n2C/C(F)=C/CN [Compound 14, (Z)-4-(2,5-dimethyl-3-((5-(methylsulfonyl)pyridin-2-yl)methyl)-1H-pyrrolo[3,2-b]pyridin-1-yl)-3-fluorobut-2-en-1-amine trihydrochloride] | < 300 | > 3000 | > 3000 | > 300 |
| CC(C)c1c(Cc2ccc(S(C)(=O)=O)cc2)c2ncccc2n1C/C(F)=C/CN [Compound 33, (Z)-3-fluoro-4-(2-isopropyl-3-(4-(methylsulfonyl)benzyl)-1H-pyrrolo[3,2-b]pyridin-1-yl)but-2-en-1-amine dihydrochloride] | < 300 | > 3000 | > 3000 | > 300 |
| Cc1ccc2c(n1)c(Cc1ccc(S(=O)(=O)N(C)C)nc1)c(C)n2C/C(F)=C/CN [Compound 16, (Z)-5-((1-(4-amino-2-fluorobut-2-en-1-yl)-2,5-dimethyl-1H-pyrrolo[3,2-b]pyridin-3-yl)methyl)-N,N-dimethylpyridine-2-sulfonamide trihydrochloride] | < 300 | > 3000 | > 3000 | > 300 |
| Cc1c(Cc2ccc(S(=O)(=O)N(C)C)cc2)c2cc(C(=O)O)ccc2n1C/C(F)=C/CN [Compound 1, (Z)-1-(4-amino-2-fluorobut-2-en-1-yl)-3-(4-(N,N-dimethylsulfamoyl)benzyl)-2-methyl-1H-indole-5-carboxylic acid hydrochloride] | < 300 | > 3000 | > 3000 | > 300 |
| CC(C)c1c(Cc2ccc(S(=O)(=O)C3CC3)nc2)c2ncccc2n1C/C(F)=C/CN [Compound 44, (Z)-4-(3-((6-(cyclopropylsulfonyl)pyridin-3-yl)methyl)-2-isopropyl-1H-pyrrolo[3,2-b]pyridin-1-yl)-3-fluorobut-2-en-1-amine dihydrochloride] | < 300 |  |  | > 300 |

— US10717734B2, “Indole and azaindole haloallylamine derivative inhibitors of lysyl oxidases and uses thereof” (PHARMAXIS LTD., priority 2016, dated 2020)
